Test [1] has as its system recombinant Bombyx mori JHAMT. Description: Juvenile hormone synthesis by recombinant juvenile hormone acid methyltransferase (enzyme reaction, reverse phase HPLC). It is filed as biochemical. Particulars: 25° C.; for production of the corresponding active juvenile hormone in the reaction solution: 100 μg substrate, S-adenosyl methionine, ten minutes, reverse phase HPLC (FIG. 4); for molecular activity (number of substrate molecules changed to reaction product by one molecule of the enzyme in one minute): Tris-HCL 50 mM, pH 7.5, 1 mM S-adenosyl methionine and 100 μM of each JH acid, mean±standard deviation, n=3. The method, then:
(§1) A reverse phase column (CAPCELL PAK C18 UG80 S-5, 3×150 mm, Shiseido) was attached to an HPLC apparatus (JASCO), and juvenile hormones were detected by measuring absorbance at 217 nm using an ultraviolet detector. Samples were flowed at a rate of 0.5 ml/min, at a column retention temperature of 40° C., for 20 minutes, in 60% acetonitrile or 80% acetonitrile.
100 μg of a juvenile hormone acid (either JH I acid, JH II acid, JH III acid, or farnesoic acid) dissolved in toluene was transferred into a silicone-treated glass test tube (10×150 mm) using a glass capillary, and the solvent was removed under a nitrogen stream. 800 μl of buffer (50 mM Tris-Cl, pH 7.5) and 100 μl of 10 mM S-adenosyl methionine solution were added thereto and mixed sufficiently, then left to stand in a 25° C. thermostat water bath for five minutes. 100 μl of the recombinant protein solution obtained by the method of Example 3 was added thereto to initiate enzyme reaction. After ten minutes, 250 μl of reaction termination solution (methanol:water:concentrated aqueous ammonia=10:9:1) was added to terminate the enzyme reaction 1 ml of isooctane was added and mixed sufficiently, then the mixture was centrifuged (2,000 rpm, 15 minutes, room temperature) to separate the organic solvent layer and the aqueous layer. 100 μl of the organic solvent layer was transferred into a small vial using a glass capillary, and then the solvent was removed under a nitrogen stream to obtain a residue, which was dissolved in 100 μl of acetonitrile to analyze the synthesized juvenile hormone by a method using reverse phase HPLC. […] The molecular activities of the recombinant Bombyx mori JHAMT against JH I acid, JH II acid, JH III acid, and farnesoic acid were determined in conditions where the buffer was Tris-HCL (50 mM, pH 7.5), the reaction temperature was 25° C., and the substrates were 1 mM of S-adenosyl methionine and 100 μM of each JH acid. These activities (the number of substrate molecules changed to reaction product by one molecule of the enzyme in one minute) were 1.80±0.32, 1.65±0.23, 0.79 ±0.06, and 0.48±0.07 (mean±standard deviation n=3), respectively. When a saturated straight chain fatty acid or an unsaturated straight chain fatty acid was used as a substrate, methyl esterification by the enzyme was not observed. Therefore, the enzyme reaction was substrate-specific to juvenile hormone acid.

Test [2] has as its target T1, recombinant Drosophila melanogaster JHAMT (Drosophila melanogaster, UniProt Q9VJK8, F166Y/S182N).
T1 construct: to amplify the coding region of the juvenile hormone acid methyltransferase gene from Drosophila melanogaster; made in house
Description: Molecular activity of recombinant Drosophila melanogaster juvenile hormone acid methyltransferase. It is filed as biochemical. The conditions noted are these: Tris-HCL 50 mM, pH 7.5; 25° C.; 1 mM S-adenosyl methionine and 100 μM of each JH acid; mean±standard deviation, n=3. Here is the method: as §1
100 μg of a juvenile hormone acid (either JH I acid, JH II acid, JH III acid, or farnesoic acid) dissolved in toluene was transferred into a silicone-treated glass test tube (10×150 mm) using a glass capillary, and the solvent was removed under a nitrogen stream. 800 μl of buffer (50 mM Tris-Cl, pH 7.5) and 100 μl of 10 mM S-adenosyl methionine solution were added thereto and mixed sufficiently, then left to stand in a 25° C. thermostat water bath for five minutes. 100 μl of the recombinant protein solution obtained by the method of Example 3 was added thereto to initiate enzyme reaction. After ten minutes, 250 μl of reaction termination solution (methanol:water:concentrated aqueous ammonia=10:9:1) was added to terminate the enzyme reaction 1 ml of isooctane was added and mixed sufficiently, then the mixture was centrifuged (2,000 rpm, 15 minutes, room temperature) to separate the organic solvent layer and the aqueous layer. […] The molecular activities of the recombinant Bombyx mori JHAMT against JH I acid, JH II acid, JH III acid, and farnesoic acid were determined in conditions where the buffer was Tris-HCL (50 mM, pH 7.5), the reaction temperature was 25° C., and the substrates were 1 mM of S-adenosyl methionine and 100 μM of each JH acid. […]
cDNAs synthesized by reverse transcription of RNA extracted from a whole adult Drosophila melanogaster were used as a template for PCR using the DMJF primer (SEQ ID NO: 17) and DMJR primer (SEQ ID NO: 18) to amplify the coding region of the juvenile hormone acid methyltransferase gene from Drosophila melanogaster. […] The activity of the recombinant protein was determined by the same method as in Example 4, confirming that the protein encoded by the gene had juvenile hormone acid methyltransferase activity. The molecular activities of the recombinant Drosophila melanogaster JHAMT against JH I acid, JH II acid, JH III acid, and farnesoic acid were determined under conditions where the buffer was Tris-HCL (50 mM, pH 7.5), the reaction temperature was 25° C., and the substrates were 1 mM of S-adenosyl methionine and 100 μM of each JH acid. These activities were determined to be 2.67±0.44, 2.07±0.26, 1.76±0.13, and 2.3±0.51 (mean±standard deviation, n=3), respectively.

T1 sequence (Q9VJK8 whole entry F166Y/S182N): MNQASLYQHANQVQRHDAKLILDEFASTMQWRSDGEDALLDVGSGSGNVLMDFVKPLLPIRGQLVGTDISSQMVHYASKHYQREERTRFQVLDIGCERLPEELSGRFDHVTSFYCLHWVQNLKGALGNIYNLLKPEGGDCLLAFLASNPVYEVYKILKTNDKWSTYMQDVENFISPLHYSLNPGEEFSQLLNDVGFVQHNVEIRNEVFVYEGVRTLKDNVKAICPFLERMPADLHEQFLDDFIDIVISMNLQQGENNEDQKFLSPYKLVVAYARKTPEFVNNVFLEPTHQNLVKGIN

As to `CC/C(=C\CC/C(C)=C/C(=O)O)CCC1OC1(C)CC` (stereo not drawn) [JH I acid], in test [1], the “production of the corresponding active juvenile hormone in the reaction solution” value is on record as “confirmed to be produced” and the “molecular activity (number of substrate molecules changed to reaction product by one molecule of the enzyme in one minute)” value is recorded as 1.80±0.32. The molecular activity in test [2] turned out to be 2.67±0.44.
For `CC[C@]1(C)O[C@@H]1CC/C(C)=C/CC/C(C)=C/C(=O)O` [JH II acid] the same measures were “confirmed to be produced”, 1.65±0.23 and 2.07±0.26.
The corresponding values for `C/C(=C\C(=O)O)CC/C=C(\C)CCC1OC1(C)C` (stereo not drawn) [JH III acid] are “confirmed to be produced”, 0.79 ±0.06 and 1.76±0.13.
For `CC(C)=CCCC(C)=CCCC(C)=CC(=O)O` [farnesoic acid] the same measures were “confirmed to be produced”, 0.48±0.07 and 2.3±0.51.

These data come from patent US20070128235A1, “Juvenile hormone transmethylase genes and method of using the same” (Inc. Admin Agency Natl Agr and Bio-oriented Research Org, priority 2003, published 2007).
